Laboratory results taken from EP0199302A2, “Contraception in dogs with luteinizing hormone releasing hormone antagonists” (SYNTEX (U.S.A.) INC., priority 1985, dated 1986).

Tests used:
bitch = assay: Plasma progesterone and pregnancy outcome in a bitch given daily subcutaneous injections for 7 days (Example 1); type: in vivo, dogs
From the text: A bitch was bled and the plasma progesterone measured in nanograms per milliliter versus the day of diestrus. The bitch was bled on day -8 and day -4. The plasma progesterone was 4 to 6 nanograms per milliliter on those two days. At day 1, the plasma progesterone was at 30 nanograms per milliliter and peaked at about 60 on day 9 slowly decreasing to about 30 on day 25. At day 25 the bitch started to receive daily subcutaneous 1 2 3 injections of [N-Ac-D-Nal(2) , D-p-Cl-Phe , D-Trp , D-Deh , D-Ala ] LHRH for 7 days. After the first injection the plasma progesterone level immediately dropped to 4 nanograms per milliliter. At the end of the course of treatment, the level of plasma progesterone was down below 1 nanogram per milliliter. A fetus was expelled the 5th day of treatment and a tissue mass was expelled on day 49, which was 24 days after the start of treatment.

pregnant beagle bitches = assay: Effect of time of dosing with two LHRH antagonists on pregnancy in bitches (Example 2, Table 1); type: in vivo, dogs; conditions: daily injection for seven days, 300 µg/kg/day
Description: Several pregnant beagle bitches were treated with one of two different LHRH antagonists by subcutaneous injection.

beagle bitch [1] = assay: Single subcutaneous injection in a pregnant beagle bitch: plasma progesterone and abortion (Example 3); type: in vivo, dogs; conditions: single subcutaneous injection of 50 mg on the twenty-ninth day of pregnancy
Description: A beagle bitch was bred and confirmed to be pregnant by manual palpation of the uterus during the fourth week of gestation. On the twenty-ninth day of pregnancy […] was administered a single subcutaneous injection of an aqueous solution of 50 mg of [N-Ac-D-Nal(2) , D-p-C1-Phe, D-Trp , D-Deh , D-Ala ]LHRH. Immediately before injection the plasma progesterone levels was 19ng/ml and by 24 hours after injection this had declined to 3.3 ng/ml. Plasma levels of progesterone varied thereafter from day to day but were never above 6 ng/ml. Delivery of an abortus was noted on the 36th day of pregnancy.

beagle bitch [2] = assay: Termination of estrus in a beagle bitch (Example 4); type: in vivo, dogs; conditions: 300 µg/kg/day for 14 days started on day 2 (entering estrus)
Description: A beagle bitch was identified with a slight sanguineous vaginal discharge (day 1 of the experiment). Microscopic evaluation of vaginal cytology confirmed the bitch to be in proestrus. […] She was immediately started on a course of treatment of 300 µg/kg/day for 14 days of [N-Ac-D-Nal(2) , D-p-Cl-Phe , D-Trp , D-Deh ,D-Ala ]LHRH.
The vaginal discharge diminished and was last noted on day 5. By day 6 the bitch was confirmed by vaginal cytology to have reentered diestrus.

pregnant cats = assay: Seven-day subcutaneous minipump infusion in pregnant cats: plasma progesterone and pregnancy (Example 5); type: in vivo; conditions: for Plasma level of progesterone: 300 μg/kg/day for seven days
Description: Female cats were bred and 15-18 days later were implanted subcutaneously with an Alzet^8 minipump filled with a solution of [N-Ac-D-Nal(2) , D-p-Cl-Phe , D-Trp , D-Deh ,D-Ala ]LHRH in propylene glycol at a concentration sufficient to deliver 300 µg/kg/day. The pumps were removed after seven days. No effect of treatment on circulating levels of progesterone could be discerned in daily plasma samples.

## N-Ac-D-Nal(2)-D-pCL-Phe-D-Trp-Ser-Tyr-D-Deh-Leu-Arg-ProD-Ala
bitch; bitch, daily subcutaneous injections for 7 days starting day 25 of diestrus
  level of plasma progesterone at the end of the course of treatment: below 1 nanogram per milliliter
bitch; bitch, daily subcutaneous injections for 7 days starting day 25 of diestrus, about 30 on day 25 before treatment
  plasma progesterone level after the first injection: 4 nanograms per milliliter
bitch; day of diestrus, 24 days after the start of treatment
  tissue mass expelled, day: 49
Pregnant beagle bitches; dog 1, treatment on days 36-42 of pregnancy
  COMMENT (pregnancy outcome): Aborted on days 39-41 of pregnancy
Pregnant beagle bitches; dog 2, treatment on days 32-38 of pregnancy
  COMMENT (pregnancy outcome): Aborted on day 35 of pregnancy
Beagle bitch [1]; 19ng/ml immediately before injection
  plasma progesterone level 24 hours after injection: 3.3 ng/mL
Beagle bitch [1]; later than 24 hours, varied from day to day
  plasma levels of progesterone thereafter: ≤ 6 ng/mL
Beagle bitch [2]
  attractiveness to stud males: not attractive to stud males
  reentered diestrus confirmed by vaginal cytology, day of the experiment: ≤ 6
  sexual receptivity: no sign of sexual receptivity
  vaginal discharge last noted, day of the experiment: 5
Pregnant cats; Cat 1, day 0 from treatment
  Plasma level of progesterone: 4.0 ng/mL
Pregnant cats; Cat 1, day 1 from treatment
  Plasma level of progesterone: 2.7 ng/mL
Pregnant cats; Cat 1, day 2 from treatment
  Plasma level of progesterone: 4.3 ng/mL
Pregnant cats; Cat 1, day 3 from treatment
  Plasma level of progesterone: 4.0 ng/mL
Pregnant cats; Cat 1, day 4 from treatment
  Plasma level of progesterone: 4.4 ng/mL
Pregnant cats; Cat 1, day 5 from treatment
  Plasma level of progesterone: 3.8 ng/mL
Pregnant cats; Cat 1, day 6 from treatment
  Plasma level of progesterone: 5.7 ng/mL
Pregnant cats; Cat 1, day 7 from treatment
  Plasma level of progesterone: 3.3 ng/mL
Pregnant cats; Cat 1, day 8 from treatment
  Plasma level of progesterone: 6.5 ng/mL
Pregnant cats; Cat 1, day 9 from treatment
  Plasma level of progesterone: 6.7 ng/mL
Pregnant cats; Cat 1, day 10 from treatment
  Plasma level of progesterone: 5.2 ng/mL
Pregnant cats; Cat 1, day -1 from treatment (before treatment)
  Plasma level of progesterone: 2.0 ng/mL
Pregnant cats; Cat 1, day -2 from treatment (before treatment)
  Plasma level of progesterone: 4.5 ng/mL
Pregnant cats; Cat 2, day 0 from treatment
  Plasma level of progesterone: 2.3 ng/mL
Pregnant cats; Cat 2, day 1 from treatment
  Plasma level of progesterone: 4.1 ng/mL
Pregnant cats; Cat 2, day 2 from treatment
  Plasma level of progesterone: 5.2 ng/mL
Pregnant cats; Cat 2, day 3 from treatment
  Plasma level of progesterone: 3.9 ng/mL
Pregnant cats; Cat 2, day 4 from treatment
  Plasma level of progesterone: 4.2 ng/mL
Pregnant cats; Cat 2, day 5 from treatment
  Plasma level of progesterone: 4.2 ng/mL
Pregnant cats; Cat 2, day 6 from treatment
  Plasma level of progesterone: 6.3 ng/mL
Pregnant cats; Cat 2, day 7 from treatment
  Plasma level of progesterone: 5.5 ng/mL
Pregnant cats; Cat 2, day 8 from treatment
  Plasma level of progesterone: 6.1 ng/mL
Pregnant cats; Cat 2, day 9 from treatment
  Plasma level of progesterone: 7.3 ng/mL
Pregnant cats; Cat 2, day 10 from treatment
  Plasma level of progesterone: 6.7 ng/mL
Pregnant cats; Cat 2, day -1 from treatment (before treatment)
  Plasma level of progesterone: 3.0 ng/mL
Pregnant cats; Cat 2, day -2 from treatment (before treatment)
  Plasma level of progesterone: 4.3 ng/mL
Pregnant cats; cats implanted 15-18 days after breeding, minipump 300 µg/kg/day for seven days
  pregnancy outcome: All treated cats continued to normal uneventful term delivery
Pregnant cats; cats implanted 15-18 days after breeding, minipump 300 µg/kg/day for seven days, daily plasma samples
  effect of treatment on circulating levels of progesterone: No effect
